From patent publication US20260207563A1, “UREA COMPOUNDS AS ACTIVATORS OF POTASSIUM CHANNELS KV7.2/7.3 USEFUL IN THE TREATMENT OF CNS AND PNS DISORDERS” (ANGELINI PHARMA S.P.A., priority 2022, published 2026) come the findings set out here.

Type in all cases: cell-based
Assay [1] deals with T1, heteromeric KV7.2/KV7.3 channels (KCNQ2, KCNQ3) (Homo sapiens, UniProt O43525+O43526).
T1 construct: expressed in transfected cells; host or cells: CHO-K1
Nature of the assay: Automated patch-clamp (Sophion Qube 384) potency assay against KV7.2/KV7.3 channels. As to conditions: CHO-K1/Kv7.2/Kv7.3 cells; for EC50: EC50 from concentration-response of shift in Vhalf, 10 concentrations up to 30 μM, read-out: Kv7.2/7.3 EC50; for Kv7.2/7.3 ΔV1/2: maximal shift in the Vhalf from the top of the curve. Summed up:
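Activator potency: EC50 from 4-parameter logistic fit of mean Vhalf shift across ten 1-in-3 dilutions starting at 30 μM (n=4), with DMSO (typically 0.3%) control. Currents recorded by leak-subtracted whole-cell clamp of stable CHO-K1 KV7.2/KV7.3 cells, held at −80 mV, stepped −100 to +20 mV then 0 mV tails.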
(The patch-clamp technique gives a direct electrical read-out from membranes.)

Assay [2] has as its target T2, homomeric KV7.4 channel (KCNQ4) (Homo sapiens, UniProt P56696).
T2 construct: host or cells: CHO-K1
Nature of the assay: Automated patch-clamp (Qube) counter-screening assay against KV7.4 channel. As to conditions: CHO-K1 cells expressing KV7.4; class by maximal shift in the Vhalf at 30 μM. Summed up: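 EC50 and maximal shift in half-activation voltage come from 4-parameter logistic fits of mean Vhalf shifts. The series had ten 1-in-3 concentrations, highest 30 μM, each tested in quadruplicate. Recordings used automated Qube patch clamp on a stable CHO-K1 line expressing KCNQ4, and selectivity was judged from the 30 μM Vhalf shift.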

For assay [3], the target named is T3, heteromeric KV7.3/KV7.5 channel (KCNQ3, KCNQ5) (Homo sapiens, UniProt O43525+Q9NR82).
T3 construct: host or cells: HEK293
Nature of the assay: Automated patch-clamp counter-screening against KV7.3/KV7.5 channel. As to conditions: HEK293 cells expressing Kv7.3/KV7.5; class by maximal shift in the Vhalf at 30 μM. Summed up: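 Potency came from a 4-parameter logistic fit of mean voltage-of-half-activation shifts, yielding EC50 and maximal shift; selectivity was judged on the shift at 30 μM. Compounds were applied at ten 3-fold dilutions from 30 μM in quadruplicate to HEK293 cells stably carrying Kv7.3 with tet-inducible Kv7.5.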

For the compound `O=C(NCc1ccnc(OCC(F)(F)F)c1)NCC1(C(F)(F)F)CC1` [Compound 35, 1-((2-(2,2,2-Trifluoroethoxy)pyridin-4-yl)methyl)-3-((1-(trifluoromethyl)cyclopropyl)methyl)urea], in assay [1], the EC50 was determined as 649 nM and the “Kv7.2/7.3 ΔV1/2” value is given as 38.22 mV. In assay [2], the Kv7.4 selectivity criteria result is “B (Non-selective compounds showed Kv7.4 and/or Kv7.3/7.5 ΔV1/2 higher than 15 mV (letter B in table 3))”. The Kv7.3/7.5 selectivity criteria result in assay [3] was “B (Non-selective compounds showed Kv7.4 and/or Kv7.3/7.5 ΔV1/2 higher than 15 mV (letter B in table 3))”.

With `O=C(NCCC1(C(F)(F)F)CC1)NCc1cc(OCc2ccccc2)ncn1` [Compound 11, 1-((6-(Benzyloxy)pyrimidin-4-yl)methyl)-3-(2-(1-(trifluoromethyl)cyclopropyl)ethyl)urea], in assay [1], the EC50 is 1830 nM and the “Kv7.2/7.3 ΔV1/2” value stood at 27.09 mV. Also, the Kv7.4 selectivity criteria result in assay [2] is reported as “A (Selective compounds showed Kv7.4 and/or Kv7.3/7.5 ΔV1/2 equal to or lower than 15 mV (letter A in table 3))”. Moreover, the Kv7.3/7.5 selectivity criteria result in assay [3] is listed as “B (Non-selective compounds showed Kv7.4 and/or Kv7.3/7.5 ΔV1/2 higher than 15 mV (letter B in table 3))”.

On to `O=C(NCc1ccnc(OCC(F)(F)F)c1)NCC1CCCCC1` [Compound 36, 1-(Cyclohexylmethyl)-3-((2-(2,2,2-trifluoroethoxy)pyridin-4-yl)methyl)urea], for which, in assay [1], the EC50 came to 435 nM and the “Kv7.2/7.3 ΔV1/2” value is on record as 31.09 mV. Moreover, in assay [2], the Kv7.4 selectivity criteria entry is on record as “A (Selective compounds showed Kv7.4 and/or Kv7.3/7.5 ΔV1/2 equal to or lower than 15 mV (letter A in table 3))”. Besides, in assay [3], the Kv7.3/7.5 selectivity criteria entry is “A (Selective compounds showed Kv7.4 and/or Kv7.3/7.5 ΔV1/2 equal to or lower than 15 mV (letter A in table 3))”.

Regarding `O=C(NCCC1(C(F)(F)F)CC1)NCc1cc(OCC(F)(F)F)ncn1` [Compound 38, 1-((6-(2,2,2-Trifluoroethoxy)pyrimidin-4-yl)methyl)-3-(2-(1-(trifluoromethyl)cyclopropyl)ethyl)urea], in assay [1], the EC50 amounted to 2020 nM and the “Kv7.2/7.3 ΔV1/2” value was 28.31 mV. Besides, the Kv7.4 selectivity criteria entry in assay [2] was “A (Selective compounds showed Kv7.4 and/or Kv7.3/7.5 ΔV1/2 equal to or lower than 15 mV (letter A in table 3))”. For the same compound, in assay [3], the Kv7.3/7.5 selectivity criteria entry was “A (Selective compounds showed Kv7.4 and/or Kv7.3/7.5 ΔV1/2 equal to or lower than 15 mV (letter A in table 3))”.

On to `COc1ccc2c(c1)[C@@H](NC(=O)NCc1ccnc(OCC(F)(F)F)c1)CC2` [Compound 128], for which, in assay [1], the EC50 came out at 397 nM and the “Kv7.2/7.3 ΔV1/2” value is on record as 15.68 mV. In addition, the Kv7.4 selectivity criteria result in assay [2] is given as “A (Selective compounds showed Kv7.4 and/or Kv7.3/7.5 ΔV1/2 equal to or lower than 15 mV (letter A in table 3))”. Besides, in assay [3], the Kv7.3/7.5 selectivity criteria entry is “A (Selective compounds showed Kv7.4 and/or Kv7.3/7.5 ΔV1/2 equal to or lower than 15 mV (letter A in table 3))”.

As to `C[C@H](NC(=O)NC[C@H](O)C(C)(C)C)c1ccnc(OCC(F)(F)C(F)(F)F)c1` [Compound 105], in assay [1], the EC50 came out at 1500 nM and the “Kv7.2/7.3 ΔV1/2” value turned out to be 35.29 mV. Besides, in assay [2], the Kv7.4 selectivity criteria result is recorded as “B (Non-selective compounds showed Kv7.4 and/or Kv7.3/7.5 ΔV1/2 higher than 15 mV (letter B in table 3))”. Also, in assay [3], the Kv7.3/7.5 selectivity criteria result is on record as “A (Selective compounds showed Kv7.4 and/or Kv7.3/7.5 ΔV1/2 equal to or lower than 15 mV (letter A in table 3))”.

As for `O=C(NCCC1(C(F)(F)F)CC1)NCc1ccnc(OCC(F)F)c1` [Compound 18, 1-((2-(2,2-Difluoroethoxy)pyridin-4-yl)methyl)-3-(2-(1-(trifluoromethyl)cyclopropyl)ethyl)urea], in assay [1], the EC50 stood at 649 nM and the “Kv7.2/7.3 ΔV1/2” value came to 24.69 mV. Moreover, in assay [2], the Kv7.4 selectivity criteria entry is “A (Selective compounds showed Kv7.4 and/or Kv7.3/7.5 ΔV1/2 equal to or lower than 15 mV (letter A in table 3))”. Moreover, the Kv7.3/7.5 selectivity criteria entry in assay [3] is given as “A (Selective compounds showed Kv7.4 and/or Kv7.3/7.5 ΔV1/2 equal to or lower than 15 mV (letter A in table 3))”.

For `O=C(NCc1ccnc(OCC(F)(F)F)c1)NC1(CO)Cc2ccccc2C1` [Compound 146], in assay [1], the EC50 turned out to be 6540 nM and the “Kv7.2/7.3 ΔV1/2” value amounted to 30.86 mV. In assay [2], the Kv7.4 selectivity criteria result is “B (Non-selective compounds showed Kv7.4 and/or Kv7.3/7.5 ΔV1/2 higher than 15 mV (letter B in table 3))”. Moreover, in assay [3], the Kv7.3/7.5 selectivity criteria result is given as “B (Non-selective compounds showed Kv7.4 and/or Kv7.3/7.5 ΔV1/2 higher than 15 mV (letter B in table 3))”.

Turning to `O=C(NCCC1(C(F)(F)F)CC1)NCc1ccnc(OCc2ccccc2)c1` [Compound 3, 1-((2-(Benzyloxy)pyridin-4-yl)methyl)-3-(2-(1-(trifluoromethyl)cyclopropyl)ethyl)urea], in assay [1], the EC50 worked out at 472 nM and the “Kv7.2/7.3 ΔV1/2” value was 25.42 mV. In addition, the Kv7.4 selectivity criteria result in assay [2] was “A (Selective compounds showed Kv7.4 and/or Kv7.3/7.5 ΔV1/2 equal to or lower than 15 mV (letter A in table 3))”. In addition, the Kv7.3/7.5 selectivity criteria result in assay [3] is reported as “A (Selective compounds showed Kv7.4 and/or Kv7.3/7.5 ΔV1/2 equal to or lower than 15 mV (letter A in table 3))”.

`N#Cc1cccc2c1CC[C@H]2NC(=O)NCc1ccnc(OCC(F)(F)F)c1` [Compound 158]: in assay [1], the EC50 was 2550 nM and the “Kv7.2/7.3 ΔV1/2” value stood at 31.18 mV. In addition, in assay [2], the Kv7.4 selectivity criteria result is reported as “B (Non-selective compounds showed Kv7.4 and/or Kv7.3/7.5 ΔV1/2 higher than 15 mV (letter B in table 3))”. Moreover, in assay [3], the Kv7.3/7.5 selectivity criteria result was “B (Non-selective compounds showed Kv7.4 and/or Kv7.3/7.5 ΔV1/2 higher than 15 mV (letter B in table 3))”.

On to `C[C@@H](Oc1cc(CNC(=O)NCCC2(C(F)(F)F)CC2)ccn1)C(F)(F)F` [Compound 51, (R)-1-(2-(1-(Trifluoromethyl)cyclopropyl)ethyl)-3-((2-((1,1,1-trifluoropropan-2-yl)oxy)pyridin-4-yl)methyl)urea], for which, in assay [1], the EC50 was 289 nM and the “Kv7.2/7.3 ΔV1/2” value amounted to 33.62 mV. For the same compound, in assay [2], the Kv7.4 selectivity criteria entry is given as “A (Selective compounds showed Kv7.4 and/or Kv7.3/7.5 ΔV1/2 equal to or lower than 15 mV (letter A in table 3))”. Also, the Kv7.3/7.5 selectivity criteria entry in assay [3] is “A (Selective compounds showed Kv7.4 and/or Kv7.3/7.5 ΔV1/2 equal to or lower than 15 mV (letter A in table 3))”.

For `O=C(NCc1ccnc(OCC(F)(F)F)c1)NC1CCc2ccccc21` (stereo not shown) [Compound 137], in assay [1], the EC50 was found to be 849 nM and the “Kv7.2/7.3 ΔV1/2” value was found to be 22.07 mV. Besides, the Kv7.4 selectivity criteria result in assay [2] is recorded as “B (Non-selective compounds showed Kv7.4 and/or Kv7.3/7.5 ΔV1/2 higher than 15 mV (letter B in table 3))”. Also, the Kv7.3/7.5 selectivity criteria result in assay [3] was “B (Non-selective compounds showed Kv7.4 and/or Kv7.3/7.5 ΔV1/2 higher than 15 mV (letter B in table 3))”.

For `O=C(NCc1ccnc(OCC(F)(F)F)c1)N[C@H]1CCCC[C@H]1O` [Compound 58, 1-((1S,2R)-2-Hydroxycyclohexyl)-3-((2-(2,2,2-trifluoroethoxy)pyridin-4-yl)methyl) urea], in assay [1], the EC50 came out at 10500 nM and the “Kv7.2/7.3 ΔV1/2” value is reported as 48.9 mV. Also, in assay [2], the Kv7.4 selectivity criteria result is listed as “B (Non-selective compounds showed Kv7.4 and/or Kv7.3/7.5 ΔV1/2 higher than 15 mV (letter B in table 3))”. Besides, the Kv7.3/7.5 selectivity criteria result in assay [3] is “B (Non-selective compounds showed Kv7.4 and/or Kv7.3/7.5 ΔV1/2 higher than 15 mV (letter B in table 3))”.

As for `O=C(NCc1ccnc(OCc2ccccc2)c1)Nc1cccc(F)c1` [Compound 1, 1-((2-(Benzyloxy)pyridin-4-yl)methyl)-3-(3-fluorophenyl)urea], in assay [1], the EC50 came to 600 nM and the “Kv7.2/7.3 ΔV1/2” value came out at 30.51 mV. In assay [2], the Kv7.4 selectivity criteria entry is recorded as “B (Non-selective compounds showed Kv7.4 and/or Kv7.3/7.5 ΔV1/2 higher than 15 mV (letter B in table 3))”. The Kv7.3/7.5 selectivity criteria result in assay [3] is “B (Non-selective compounds showed Kv7.4 and/or Kv7.3/7.5 ΔV1/2 higher than 15 mV (letter B in table 3))”.

With `O=C(NCc1ccnc(OCC(F)(F)F)c1)Nc1cc(F)cc(Cl)c1` [Compound 77, 1-(3-Chloro-5-fluorophenyl)-3-((2-(2,2,2-trifluoroethoxy)pyridin-4-yl)methyl)urea], in assay [1], the EC50 is 549 nM and the “Kv7.2/7.3 ΔV1/2” value worked out at 32.37 mV. In assay [2], the Kv7.4 selectivity criteria result is “B (Non-selective compounds showed Kv7.4 and/or Kv7.3/7.5 ΔV1/2 higher than 15 mV (letter B in table 3))”. Further, the Kv7.3/7.5 selectivity criteria result in assay [3] is “A (Selective compounds showed Kv7.4 and/or Kv7.3/7.5 ΔV1/2 equal to or lower than 15 mV (letter A in table 3))”.

With `O=C(NCc1ccnc(OCC(F)(F)F)c1)NCC1CCc2ccccc21` (stereo not shown) [Compound 157], in assay [1], the EC50 is 4010 nM and the “Kv7.2/7.3 ΔV1/2” value was 18.8 mV. In assay [2], the Kv7.4 selectivity criteria result is “A (Selective compounds showed Kv7.4 and/or Kv7.3/7.5 ΔV1/2 equal to or lower than 15 mV (letter A in table 3))”. Moreover, the Kv7.3/7.5 selectivity criteria entry in assay [3] is recorded as “A (Selective compounds showed Kv7.4 and/or Kv7.3/7.5 ΔV1/2 equal to or lower than 15 mV (letter A in table 3))”.
